Laboratory results published in DBAASP.
Converted amounts (≈) assume the structure as drawn. “And” between values parts separate entries of the source, which are not always exact repeats. Identical values can stand only once. Values belong to the compound of their own block, whether it stands above or below them.

Experiments:
Assay in all cases: ≥ marks a high value that may be exact or a test limit, other limits are often not marked, values filed in µg/mL are converted to µM
[1] = system: Staphylococcus aureus II ATCC 6538P
Staphylococcus simulans = system: Staphylococcus simulans
[2] = system: Escherichia coli ATCC 25922
[3] = system: Staphylococcus epidermidis LT1324
Escherichia coli D21 = system: Escherichia coli D21
Micrococcus luteus = system: Micrococcus luteus
Acinetobacter baumannii = system: Acinetobacter baumannii
[4] = system: Pseudomonas aeruginosa ATCC 27853
[5] = system: Acinetobacter baumannii ATCC 19606
Spiroplasma citri R8A2 = system: Spiroplasma citri R8A2
[6] = system: Mycoplasma mycoides ssp. mycoides SC KH3J
[7] = system: Spiroplasma floricola BNR 1
[8] = system: Acholeplasma laidlawii A-EF22
[9] = system: Spiroplasma melliferum BC3
[10] = system: Staphylococcus aureus ATCC 25923
[11] = system: Psychrobacter faecalis X29
[12] = system: Bacillus licheniformis X39
[13] = system: Pseudomonas aeruginosa CGMCC 1.50
[14] = system: Enterococcus faecalis 981
[15] = system: Staphylococcus carnosus KHS
[16] = system: Candida albicans ATCC 10231
[17] = system: Pseudomonas aeruginosa 11053
[18] = system: Rhodococcus rhodochrous X15
[19] = system: Klebsiella pneumoniae 08040724
Serratia rubidaea X01 = system: Serratia rubidaea X01
[20] = system: Proteus mirabilis ATCC 25933
[21] = system: Staphylococcus aureus T7/20
[22] = system: Staphylococcus epidermidis RP62A
[23] = system: Enterobacter cloacae HNTCC 53001
[24] = system: Staphylococcus aureus NCTC 8325
[25] = system: Klebsiella pneumoniae KK3 9904
[26] = system: Candida albicans ATCC 90028
[27] = system: Enterococcus faecalis ATCC 29212
[28] = system: Salmonella enterica subsp. enterica serovar Typhimurium ATCC 700408
[29] = system: Klebsiella pneumoniae K6 ATCC 700603
Escherichia coli D31 = system: Escherichia coli D31
Escherichia coli 45849 = system: Escherichia coli 45849
[30] = system: Salmonella enterica subsp. enterica serovar Typhi S5
[31] = system: Micrococcus luteus ATCC 10240
[32] = system: Agrobacterium tumefaciens ATCC 15955
Escherichia coli BL21AI = system: Escherichia coli BL21AI
[33] = system: Klebsiella pneumoniae 123132
[34] = system: Staphylococcus aureus BNCC 186335
[35] = system: Escherichia coli BNCC 133264
Staphylococcus aureus = system: Staphylococcus aureus
[36] = system: Pseudomonas aeruginosa BNCC 125486
[37] = system: Pseudomonas aeruginosa PAO1
Escherichia coli = system: Escherichia coli
Bacillus subtilis 168 = system: Bacillus subtilis 168
Escherichia coli K-12 = system: Escherichia coli K-12
[38] = system: Staphylococcus aureus USA 300
Listeria monocytogenes = system: Listeria monocytogenes

Structure (SMILES): CC[C@H](C)[C@H](NC(=O)[C@H](CCCCN)NC(=O)[C@@H]1CCCN1C(=O)[C@H](CC(C)C)NC(=O)[C@H](Cc1ccccc1)NC(=O)[C@H](CC(N)=O)NC(=O)[C@H](C)NC(=O)[C@H](C)NC(=O)[C@H](CC(C)C)NC(=O)CNC(=O)[C@H](C)NC(=O)[C@H](CC(C)C)NC(=O)[C@H](CCSC)NC(=O)[C@@H]1CCCN1C(=O)[C@H](CC(C)C)NC(=O)[C@@H](N)Cc1ccccc1)C(=O)N[C@H](C(=O)N[C@H]1CSSC[C@@H](C(=O)O)NC(=O)[C@H](CCCCN)NC(=O)[C@H](CCCCN)NC(=O)[C@H]([C@@H](C)O)NC(=O)[C@H]([C@@H](C)CC)NC(=O)[C@H](CCCCN)NC1=O)C(C)C [FLPMLAGLAANFLPKIVCKITKKC]
MIC [10]: 9 µM (≈ 23.6 µg/mL)
MIC [11]: 9 µM (≈ 23.6 µg/mL)
MIC [12]: 2.3 µM (≈ 6.02 µg/mL)
MIC [2]: 75 µM (≈ 196 µg/mL)
MIC [13]: ≥ 75 µM
MIC [14]: 9 µM (≈ 23.6 µg/mL)
MIC [15]: 1.2 µM (≈ 3.14 µg/mL)
MIC [16]: 37.5 µM (≈ 98.2 µg/mL)
MIC [17]: ≥ 75 µM
MIC [18]: 0.6 µM (≈ 1.57 µg/mL)
MIC [19]: ≥ 150 µM
MIC (Serratia rubidaea X01): 4.6 µM (≈ 12 µg/mL)

Structure (SMILES): CC[C@H](C)[C@H](NC(=O)[C@H](CCCCN)NC(=O)[C@H](CO)NC(=O)[C@@H](NC(=O)[C@H](CC(C)C)NC(=O)[C@H](CO)NC(=O)[C@@H]1CCCN1C(=O)[C@H](CC(C)C)NC(=O)[C@H](C)NC(=O)[C@H](CO)NC(=O)[C@H](C)NC(=O)[C@H](CC(C)C)NC(=O)[C@H](C)NC(=O)CNC(=O)[C@@H](NC(=O)[C@@H](NC(=O)[C@H](CO)NC(=O)CNC(=O)[C@H](CC(C)C)NC(=O)[C@@H](N)Cc1ccccc1)[C@@H](C)CC)C(C)C)[C@@H](C)CC)C(=O)N[C@@H](CCCN=C(N)N)C(=O)N[C@@H](CC(N)=O)C(N)=O [FLGSIVGALASALPSLISKIRN]
MIC [20]: ≥ 100 µM
MIC [2]: 25 µM (≈ 55.7 µg/mL)
MIC [21]: 25 µM (≈ 55.7 µg/mL)
MIC [22]: 12.5 µM (≈ 27.8 µg/mL)
MIC [23]: ≥ 50 µM
MIC [24]: 25 µM (≈ 55.7 µg/mL)
MIC [25]: ≥ 100 µM
MIC [4]: 50 µM (≈ 111 µg/mL)
MIC [26]: ≥ 50 µM
MIC [27]: 50 µM (≈ 111 µg/mL)

Structure (SMILES): CC[C@H](C)[C@H](NC(=O)[C@H](CCCCN)NC(=O)[C@H](CCCN=C(N)N)NC(=O)[C@@H](NC(=O)[C@H](CC(C)C)NC(=O)[C@H](CCCCN)NC(=O)[C@H](CC(C)C)NC(=O)[C@@H](NC(=O)[C@H](CCCCN)NC(=O)CNC(=O)[C@H](Cc1ccccc1)NC(=O)[C@@H](N)Cc1ccccc1)C(C)C)[C@@H](C)CC)C(=O)N[C@@H](Cc1ccccc1)C(N)=O [FFGKVLKLIRKIF]
MIC [34]: ≥ 39.8 µM
MIC [35]: ≥ 79.5 µM
MIC (Staphylococcus aureus): 39.8 µM (≈ 64 µg/mL)
MIC [36]: ≥ 79.5 µM
MIC [37]: > 100 µM
MIC (Escherichia coli): > 79.5 µM
MIC (Bacillus subtilis 168): ≥ 100 µM
MIC (Escherichia coli K-12): ≥ 100 µM
MIC [38]: 3.1 µM (≈ 4.99 µg/mL)
MIC (Listeria monocytogenes): 4.97 µM (≈ 8 µg/mL)

The remaining lines, values ahead:

MIC [1]: 3 µM (≈ 5.41 µg/mL)
MIC (Staphylococcus simulans): 2 µM (≈ 3.61 µg/mL)
MIC [2]: 13 µM (≈ 23.5 µg/mL)
MIC [3]: 4 µM (≈ 7.22 µg/mL)
MIC (Escherichia coli D21): 13 µM (≈ 23.5 µg/mL)
MIC (Micrococcus luteus): 2 µM (≈ 3.61 µg/mL)
MIC (Acinetobacter baumannii): 6.2 µM (≈ 11.2 µg/mL)
MIC [4]: 24.9 µM and 25 µM
MIC [5]: 1 µM (≈ 1.8 µg/mL)
Structure (SMILES): CC(C)C[C@H](NC(=O)[C@H](CC(C)C)NC(=O)[C@H](CCCCN)NC(=O)[C@H](CC(C)C)NC(=O)[C@H](CC(C)C)NC(=O)[C@H](CCCCN)NC(=O)[C@H](CCCCN)NC(=O)[C@H](CC(C)C)NC(=O)[C@H](CC(C)C)NC(=O)[C@H](CCCCN)NC(=O)[C@H](CCCCN)NC(=O)[C@H](CC(C)C)NC(=O)[C@H](CC(C)C)NC(=O)[C@H](CCCCN)NC(=O)[C@@H](N)CC(C)C)C(N)=O [LKLLKKLLKKLLKLL]

MIC (Spiroplasma citri R8A2): 6.25 µM (≈ 12.4 µg/mL)
MIC [6]: 12.5 µM (≈ 24.9 µg/mL)
MIC [7]: 6.25 µM (≈ 12.4 µg/mL)
MIC [8]: 0.78 µM (≈ 1.55 µg/mL)
MIC [9]: 6.25 µM (≈ 12.4 µg/mL)
Structure (SMILES): CC(C)C[C@H](NC(=O)[C@H](CCCCN)NC(=O)[C@H](CC(C)C)NC(=O)[C@H](CC(C)C)NC(=O)[C@H](CCCCN)NC(=O)[C@H](CC(C)C)NC(=O)[C@H](CC(C)C)NC(=O)[C@H](CCCCN)NC(=O)[C@H](CC(C)C)NC(=O)[C@H](CC(C)C)NC(=O)[C@H](CCCCN)NC(=O)[C@H](CC(C)C)NC(=O)[C@H](CC(C)C)NC(=O)[C@@H](N)CCCCN)C(=O)N[C@@H](Cc1c[nH]c2ccccc12)C(=O)N[C@@H](CCCCN)C(=O)O [KLLKLLKLLKLLKLWK]

MIC [28]: 0.162 µM (≈ 0.353 µg/mL)
MIC [29]: 3.67 µM (≈ 8 µg/mL)
MIC (Escherichia coli D31): 3.67 µM (≈ 8 µg/mL)
MIC (Escherichia coli 45849): 0.115 µM (≈ 0.25 µg/mL)
MIC [30]: 0.459 µM (≈ 1 µg/mL)
MIC [31]: 0.634 µM (≈ 1.38 µg/mL)
MIC [32]: 0.298 µM (≈ 0.65 µg/mL)
MIC (Escherichia coli BL21AI): 1.27 µM (≈ 2.76 µg/mL)
MIC [33]: 1.84 µM (≈ 4 µg/mL)
Structure (SMILES): CC[C@H](C)[C@H](NC(=O)[C@H](Cc1ccc(O)cc1)NC(=O)[C@@H](NC(=O)[C@@H]1CCCN1C(=O)[C@H](CCCN=C(N)N)NC(=O)[C@H](CC(N)=O)NC(=O)[C@H](CC(N)=O)NC(=O)[C@@H](N)CCCCN)C(C)C)C(=O)N1CCC[C@H]1C(=O)N[C@@H](CCCCN)C(=O)N1CCC[C@H]1C(=O)N[C@@H](CCCN=C(N)N)C(=O)N1CCC[C@H]1C(=O)N1CCC[C@H]1C(=O)N[C@@H](Cc1cnc[nH]1)C(=O)N1CCC[C@H]1C(=O)N[C@@H](CCCN=C(N)N)C(=O)N[C@@H](CC(C)C)C(N)=O [KNNRPVYIPKPRPPHPRL]
